This data set has as its system Haut der Probanden. Description: Patch test for skin tolerance on 50 subjects. As to conditions: 48 h under occlusion on the back, read at 48 h and 72 h (erythema, scaling, fissures). The class given is in vivo. An excerpt:
Zur Prüfung der Hautverträglichkeit des Tränkungsmittels, mit dem erfindungsgemäße Feuchttücher getränkt sind, wird ein Patch-Test an 50 Probanden durchgeführt. Mit einem Patch-Test können dermatologische und kosmetische Produkte auf ihr irritatives Potential untersucht werden. Bei den 50 ausgewählten Personen im Alter zwischen 18 und 69 Jahren handelte es sich um 28 Hautgesunde, 2 Atopiker, 2 Allergiker und 18 Personen mit empfindlicher Haut.
Für den Patch-Test wurde eine gemäß der in Tabelle 1 (Beispiel 1) angegebenen Rahmenrezeptur zusammengesetzte O/W-Emulsion für 48 Stunden unverdünnt auf den Rücken der Probanden mit Hilfe von quadratischen Kunststoffkammern (allergEAZE® clear Patch Test Chambers; SmartPractice®, Phoenix, AZ) unter Okklusion appliziert. Als Positivkontrolle diente der Modellschadstoff Natriumlaurylsulfat (SDS) in einer Konzentration von 1 % in Wasser. Als negative Kontrolle diente Wasser.
Die Bewertung der Testreaktionen erfolgte nach 48 Stunden (30 Minuten nach der Entfernung der Okklusion) sowie nach 72 Stunden, wobei die Haut der Probanden jeweils hinsichtlich Erythem, Schuppung und Fissuren untersucht wurde.

For `CCCCCCCCCCCCOS(=O)(=O)O` [SDS, Natriumlaurylsulfat], the “Testpersonen mit Reaktion im Patch-Test” value is recorded as 14 Testpersonen.

These data come from patent EP3494850B1, “WET WIPE WITH HYDROXYACETOPHENON” (Dr. Schumacher GmbH, priority 2017, dated 2019).
